The values below come from patent US5780675A, “Deoxygossylic compounds” (The University of New Mexico, priority 1995, dated 1998).

Entries after “also recorded” stand apart in the source; their conditions may differ. Read-outs that look alike come from different tables or passages of the source.

Data set [1] concerns the target T1, human serum albumin (Homo sapiens, UniProt P02768). The experiment in a line: Binding to human serum albumin, fluorescence quenching titration. Conditions: 25° C., pH 7.4, read-out: Dissociation constant (Kd) for binding to human serum albumin. The procedure:
Table I below lists the dissociation constants (Kds) for binding of compounds 1-6 to human serum albumin. The Kd for gossypol was determined by multiple methods as reported in FEBS Lett. 157:28-30, 1983. The Kds for compounds 2-6 were determined by fluorescence quenching titrations.
These experiments were carried out at 25° C. in 2 mL volumes of 0.2M potassium phosphate buffer (pH 7.4) containing 0.1M sodium chloride. Aliquots of a 1 mM stock solution of test compound in DMSO were added to a 10 μM solution of human serum albumin in the buffer. Fluorescence was measured with a Perkin Elmer model LS 50 luminescence spectrometer. The Kds were determined by plotting the reciprocal of free ligand concentration versus the reciprocal of fractional quenching. This plot provides -1/Kd as the x-intercept. Details of the calculations employed are set forth in J. Pharm. Sci. 77:237-240 (1988).

In data set [2] the test system is HT46c (HeLaT4+) cells. The experiment in a line: Cytotoxicity: changes in cell morphology or loss of monolayer adherence in HT46c cells. The data set is classed as cell-based. Conditions: for cytotoxicity (in words): HT46c cells, compared with BDGA and/or GIL where stated; for toxicity (in words): 5.0 μM.
Assay in data set [3]: as above
It is filed as cell-based. The conditions noted are these: human; for MCC at 72 h: HT46c cells, 3 days, lowest concentration with detectable morphology change or loss of monolayer adherence, read-out: threshold cytotoxicity.

Data set [4] has as its system H9/HIV-IIIB strain of the HIV-1 virus. In words: Inhibition of HIV replication, focal immunoassay (foci reduction) in HT46c cells. It is filed as cell-based. Conditions: for anti-HIV activity (in words): in vitro, compared with BDGA and/or GIL where stated; for anti-HIV activity (in words) / EC50: H9/HIV-IIIB in HT46c cells; for reduction in foci (in words): 5 μM, GIL and BDGA compared; for EC50: Human immunodeficiency virus 1, 72 h, 3 days at 37° C. The procedure: 1,1'-bisdeoxygossypol (BDG), 1,1'-bisdeoxygossylic acid (BDGA), 8-deoxyhemigossypol (DHG) and 8-deoxyhemigossylic acid (DHGA) were synthesized and tested for their ability to inhibit the replication of HIV in vitro. The EC50 for BDGA was <1 μM and its threshold cytotoxicity was approximately 20 μM. […] Like BDGA, the Ec50 for GIL was <1 μM. […] BDG, on the other hand, was ineffective at 1 μM and destroyed >80% of the cell monolayer at 5 μM.
The anti-HIV assay used was based on a published procedure (J. Virol. 62:3779-3788, 1988) using HT46c (HeLaT4+) cells as host cells for the H9/HIV-IIIB strain of the HIV-1 virus. The cells were seeded into 6-well plates, 5×10^4 cells/well, in RPMI 1640 with 10% FBS and allowed to attach overnight. After treatment of the wells with DEAE-dextran, stock virus was added at a concentration that produces 100-200 foci/well on day 3 in positive control wells. Test compounds were added, and plates incubated for 3 days at 37° C., 5% CO2. Monolayers were fixed with methanol and wells analyzed with a focal immunoassay (FIA). The primary reagent used in the FIA was a polyclonal antibody preparation of sera from AIDS patients. The secondary reagent was a goat anti-human IgG antibody tagged with horseradish peroxidase. The substrate was 3-amino-9-ethylcarbazole in sodium acetate buffer with hydrogen peroxide. Each compound was tested at concentrations of 0.01, 0.1, 1.0, 5.0 and 20 μM. GIL was tested as a standard for comparison.

Data set [5] deals with HIV. The conditions noted are these: previously found, in vitro, similar assays; cited from earlier work.
For data set [6] the following is noted: previous or background findings; GIL compared with gossypol; cited from earlier work.
In data set [7] the target is T1, human serum albumin. The conditions noted are these: gossypol, determined by multiple methods as reported in FEBS Lett. 157:28-30, 1983; read-out: Dissociation constant (Kd) for binding to human serum albumin; cited from earlier work.

T1 sequence (P02768 25-609): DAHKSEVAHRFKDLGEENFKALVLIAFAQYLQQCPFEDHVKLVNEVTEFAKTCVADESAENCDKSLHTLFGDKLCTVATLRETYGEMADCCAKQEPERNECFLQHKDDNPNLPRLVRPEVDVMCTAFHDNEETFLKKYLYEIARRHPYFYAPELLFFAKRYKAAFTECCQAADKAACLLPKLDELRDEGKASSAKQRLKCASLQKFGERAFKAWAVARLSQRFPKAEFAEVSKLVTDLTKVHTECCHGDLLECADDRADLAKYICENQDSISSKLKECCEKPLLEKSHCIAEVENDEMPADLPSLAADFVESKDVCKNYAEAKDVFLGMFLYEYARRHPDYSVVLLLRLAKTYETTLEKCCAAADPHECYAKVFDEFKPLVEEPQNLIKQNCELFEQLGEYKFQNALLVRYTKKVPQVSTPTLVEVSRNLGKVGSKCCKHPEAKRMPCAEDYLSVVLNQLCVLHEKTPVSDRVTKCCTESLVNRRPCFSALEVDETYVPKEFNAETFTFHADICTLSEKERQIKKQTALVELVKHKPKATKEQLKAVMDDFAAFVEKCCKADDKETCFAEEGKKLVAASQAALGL

Turning to `Cc1cc2c(C(C)C)c(O)c(O)c(C=O)c2cc1-c1cc2c(C=O)c(O)c(O)c(C(C)C)c2cc1C` [BDG, 6,6',7,7'-Tetrahydroxy-3,3'-dimethyl-5,5'-bis(1-methylethyl) [2,2'-binaphthalene]-8,8'-dicarboxaldehyde], the Kd in data set [1] was 1.2 µM. Further, in data set [2], the “cytotoxicity (in words)” value is recorded as “much more cytotoxic than BDGA”. For the same compound, the cytotoxicity at 5 µM in data set [3] (ht46c cells, 5 μM, read-out: cell monolayer destroyed) was > 80%. Besides, in data set [4] (1 μM), the “anti-HIV effect (in words)” value is “ineffective”. Also, in data set [4], the “anti-HIV activity (in words)” value is “less effective against HIV”.

For the compound `Cc1cc2c(C(C)C)c(O)c(O)c(C(=O)O)c2cc1-c1cc2c(C(=O)O)c(O)c(O)c(C(C)C)c2cc1C` [BDGA, 6,6',7,7'-Tetrahydroxy-3,3'-dimethyl-5,5'-bis(1-methylethyl) [2,2'-binaphthalene]-8,8'-dicarboxylic Acid], in data set [1], the Kd turned out to be 1.5 µM. In addition, the “toxicity (in words)” value in data set [2] is given as “No toxicity was noted”. The “monolayer destruction (in words)” value in data set [2] (20 μM) was “Some signs of monolayer destruction”. The MCC at 72 h in data set [3] is ~20 µM. Also, in data set [4], the “reduction in foci (in words)” value is recorded as “same reduction in foci”, the EC50 is < 1 µM and the “anti-HIV activity (in words)” value is “approximately as effective as GIL”.

For the compound `Cc1ccc2c(C=O)c(O)c(O)c(C(C)C)c2c1` [DHG, 2,3-dihydroxy-6-methyl-4-(1-methylethyl)-1-naphthaldehyde], the Kd in data set [1] was 0.66 µM. In data set [2], the “cytotoxicity (in words)” value is “more cytotoxic”. Also, the MCC at 72 h in data set [3] was determined as 5 µM. Further, the “anti-HIV activity (in words)” value in data set [4] is “some anti-HIV activity; also recorded: less active”.

`Cc1ccc2c(C(=O)O)c(O)c(O)c(C(C)C)c2c1` [DHGA, 2,3-dihydroxy-6-methyl-4-(1-methylethyl)-1-naphthoic Acid]: in data set [1], the dissociation constant (Kd) came out at 5.28 µM. The “cytotoxicity (in words)” value in data set [2] is listed as “very low cytotoxicity”. Further, in data set [2] (even at 20 μM), the “effect on cell morphology (in words)” value is “no observable effect on viral replication or cell morphology”. Further, the “effect on viral replication (in words)” value in data set [4] (even at 20 μM) is listed as “no observable effect on viral replication”. Besides, the “anti-HIV activity (in words)” value in data set [4] is “ineffective against HIV”.

As to `Cc1cc2c(C(C)C)c(O)c(O)c3c2c(c1-c1c(C)cc2c(C(C)C)c(O)c(O)c4c2c1OC4=N)OC3=N` [GIL, reference compound], in data set [5], the “anti-HIV activity relative to gossypol (in words)” value was “more active; also recorded: more effective than gossypol”. In addition, in data set [1], the Kd turned out to be 3 µM. Also, in data set [2], the “toxicity (in words)” value was “No toxicity was noted”. In addition, in data set [4], the “reduction in foci (in words)” value was “same reduction in foci” and the half-maximal effective concentration (EC50) was < 1 µM. For the same compound, in data set [6], the “cytotoxicity (in words), previous findings” value was “less cytotoxic than gossypol”.

Consider `Cc1cc2c(C(C)C)c(O)c(O)c(C=O)c2c(O)c1-c1c(C)cc2c(C(C)C)c(O)c(O)c(C=O)c2c1O` [gossypol], for which, in data set [7], the Kd was 0.09 µM. The “cytotoxicity (in words), previous findings” value in data set [6] is on record as “significantly cytotoxic at effective dosage levels”.
